# Reference: article PMC9161259 (ACS Omega, 2022)
# Target: wild-type EGFR (Homo sapiens, UniProt P00533)
# Experiment: ADP-Glo kinase assay, wild-type EGFR
# Assay type: biochemical
# Settings: not given
# wild-type EGFR, sequence (P00533 25-1210): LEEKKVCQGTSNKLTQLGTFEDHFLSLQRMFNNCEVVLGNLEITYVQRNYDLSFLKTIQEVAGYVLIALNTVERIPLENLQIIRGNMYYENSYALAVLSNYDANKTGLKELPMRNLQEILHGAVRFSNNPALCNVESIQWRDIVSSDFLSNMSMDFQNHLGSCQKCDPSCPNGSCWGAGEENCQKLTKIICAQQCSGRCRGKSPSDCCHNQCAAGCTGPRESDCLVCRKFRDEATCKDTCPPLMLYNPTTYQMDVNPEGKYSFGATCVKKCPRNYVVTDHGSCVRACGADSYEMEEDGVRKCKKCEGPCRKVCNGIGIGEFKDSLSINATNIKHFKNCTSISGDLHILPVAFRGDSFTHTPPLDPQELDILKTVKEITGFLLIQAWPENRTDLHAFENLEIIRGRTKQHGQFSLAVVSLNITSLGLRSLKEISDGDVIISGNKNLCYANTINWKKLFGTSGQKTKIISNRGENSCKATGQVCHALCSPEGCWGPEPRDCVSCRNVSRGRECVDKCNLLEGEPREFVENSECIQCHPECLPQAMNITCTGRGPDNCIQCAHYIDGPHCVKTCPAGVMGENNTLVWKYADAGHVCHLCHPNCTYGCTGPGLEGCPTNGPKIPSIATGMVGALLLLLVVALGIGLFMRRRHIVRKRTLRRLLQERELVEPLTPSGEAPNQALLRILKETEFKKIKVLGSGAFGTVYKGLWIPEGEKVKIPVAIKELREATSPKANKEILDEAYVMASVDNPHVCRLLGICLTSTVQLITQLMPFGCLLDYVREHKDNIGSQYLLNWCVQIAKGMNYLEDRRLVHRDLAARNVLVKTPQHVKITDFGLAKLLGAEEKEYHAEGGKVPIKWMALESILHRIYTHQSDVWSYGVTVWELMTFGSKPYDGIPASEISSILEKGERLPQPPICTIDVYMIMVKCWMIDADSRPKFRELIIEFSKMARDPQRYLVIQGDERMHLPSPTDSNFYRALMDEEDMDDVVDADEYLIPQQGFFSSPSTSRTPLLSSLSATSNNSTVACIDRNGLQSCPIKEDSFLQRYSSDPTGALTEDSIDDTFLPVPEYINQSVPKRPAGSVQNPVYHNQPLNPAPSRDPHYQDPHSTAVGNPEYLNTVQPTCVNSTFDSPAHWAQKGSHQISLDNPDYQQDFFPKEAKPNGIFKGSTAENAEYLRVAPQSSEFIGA
row,Compound,IC50 [µM]
1,"O=C1C(Cl)=C(Nc2ccc([N+](=O)[O-])cc2)C(=O)c2ccccc21 [compound 8, 2-Chloro-3-((4-nitrophenyl)amino)naphthalene-1,4-dione]",0.0114 ± 0.00035
2,"O=C1C(Cl)=C(Nc2cccc([N+](=O)[O-])c2)C(=O)c2ccccc21 [compound 10, 2-Chloro-3-((3-nitrophenyl)amino)naphthalene-1,4-dione]",0.0186 ± 0.00141
3,"Cc1ccc(NC2=C(Cl)C(=O)c3ccccc3C2=O)cc1 [compound 3, 2-Chloro-3-(p-tolylamino)naphthalene-1,4-dione]",0.00396 ± 0.00066

# Same assay, conditions: ratio of IC50 values, wild-type EGFR
row,Compound,"EGFR inhibitory activity, times higher than that of erlotinib [fold]"
1,"Cc1ccc(NC2=C(Cl)C(=O)c3ccccc3C2=O)cc1 [compound 3, 2-Chloro-3-(p-tolylamino)naphthalene-1,4-dione]",4

# Target: L858R/T790M mutant EGFR (Homo sapiens, UniProt P00533, L858R/T790M)
# Sequence (P00533 25-1210 T790M/L858R): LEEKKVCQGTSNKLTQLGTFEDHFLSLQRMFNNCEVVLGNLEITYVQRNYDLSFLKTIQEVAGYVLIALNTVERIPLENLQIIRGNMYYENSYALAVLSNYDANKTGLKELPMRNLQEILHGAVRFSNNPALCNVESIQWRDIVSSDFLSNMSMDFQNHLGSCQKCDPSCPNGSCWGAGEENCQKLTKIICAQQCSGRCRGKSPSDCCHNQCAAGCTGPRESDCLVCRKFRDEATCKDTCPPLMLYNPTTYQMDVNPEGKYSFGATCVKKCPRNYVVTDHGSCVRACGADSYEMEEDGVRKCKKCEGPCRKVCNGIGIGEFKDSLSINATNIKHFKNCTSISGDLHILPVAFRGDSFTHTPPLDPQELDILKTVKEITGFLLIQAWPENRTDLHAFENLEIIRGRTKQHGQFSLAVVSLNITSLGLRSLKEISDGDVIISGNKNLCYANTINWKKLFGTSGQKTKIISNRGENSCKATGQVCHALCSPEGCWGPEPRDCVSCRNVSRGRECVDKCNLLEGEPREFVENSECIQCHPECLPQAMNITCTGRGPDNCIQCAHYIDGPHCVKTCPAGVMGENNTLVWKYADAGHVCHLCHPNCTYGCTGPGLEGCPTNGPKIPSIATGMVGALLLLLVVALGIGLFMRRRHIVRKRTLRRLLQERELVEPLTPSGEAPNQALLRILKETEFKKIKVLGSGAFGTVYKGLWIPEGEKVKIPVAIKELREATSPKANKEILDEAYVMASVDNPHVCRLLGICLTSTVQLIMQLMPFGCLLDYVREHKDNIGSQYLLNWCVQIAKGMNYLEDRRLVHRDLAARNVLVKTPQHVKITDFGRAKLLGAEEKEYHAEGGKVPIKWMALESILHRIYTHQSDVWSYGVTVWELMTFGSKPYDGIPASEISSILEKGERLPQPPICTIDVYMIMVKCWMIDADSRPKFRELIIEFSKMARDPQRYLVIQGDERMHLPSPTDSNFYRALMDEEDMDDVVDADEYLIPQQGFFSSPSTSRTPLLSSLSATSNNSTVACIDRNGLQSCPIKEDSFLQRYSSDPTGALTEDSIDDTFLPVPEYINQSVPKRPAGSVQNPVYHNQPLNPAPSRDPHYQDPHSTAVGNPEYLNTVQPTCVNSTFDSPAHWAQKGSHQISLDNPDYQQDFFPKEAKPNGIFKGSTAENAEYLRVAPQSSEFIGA
# Experiment: ADP-Glo kinase assay, L858R/T790M mutant EGFR
# Assay type: biochemical
# Settings: not given
row,Compound,IC50 [µM]
1,"O=C1C(Cl)=C(Nc2ccc([N+](=O)[O-])cc2)C(=O)c2ccccc21 [compound 8, 2-Chloro-3-((4-nitrophenyl)amino)naphthalene-1,4-dione]",> 0.1
2,"O=C1C(Cl)=C(Nc2cccc([N+](=O)[O-])c2)C(=O)c2ccccc21 [compound 10, 2-Chloro-3-((3-nitrophenyl)amino)naphthalene-1,4-dione]",> 0.1
3,"Cc1ccc(NC2=C(Cl)C(=O)c3ccccc3C2=O)cc1 [compound 3, 2-Chloro-3-(p-tolylamino)naphthalene-1,4-dione]",> 0.1

# System: A549 lung carcinoma cell line
# Experiment: Cytotoxic assay
# Settings: Homo sapiens, A549, 48 h, read-out: Cytotoxic activity IC50, A549
row,Compound,IC50
1,"COc1ccc(NC2=C(Cl)C(=O)c3ccccc3C2=O)cc1 [compound 11, 2-Chloro-3-((4-methoxyphenyl)amino)naphthalene-1,4-dione]",> 50 µg/mL
2,"COc1ccc(NC2=CC(=O)c3ccccc3C2=O)cc1 [compound 18, 2-((4-Methoxyphenyl)amino)naphthalene-1,4-dione]",> 50 µg/mL
3,"O=C1C(Br)=C(Nc2ccc(Br)cc2)C(=O)c2ccccc21 [compound 15, 2-Bromo-3-((4-bromophenyl)amino)naphthalene-1,4-dione]",> 50 µg/mL
4,"O=C1C(Br)=C(Nc2ccccc2)C(=O)c2ccccc21 [compound 13, 2-Bromo-3-(phenylamino)naphthalene-1,4-dione]",27.91 ± 0.05 µM
5,"O=C1C(Cl)=C(Nc2ccc(I)cc2)C(=O)c2ccccc21 [compound 6, 2-Chloro-3-((4-iodophenyl)amino)naphthalene-1,4-dione]",> 50 µg/mL
6,"COc1cccc2c1C(=O)c1c(O)c3c(c(O)c1C2=O)C[C@@](O)(C(=O)CO)C[C@@H]3O[C@H]1C[C@H](N)[C@H](O)[C@H](C)O1 [doxorubicin, reference compound]",0.34 ± 0.01 µM
7,"O=C1C(Cl)=C(Nc2ccc([N+](=O)[O-])cc2)C(=O)c2ccccc21 [compound 8, 2-Chloro-3-((4-nitrophenyl)amino)naphthalene-1,4-dione]",70 ± 2.04 µM
8,"O=C1C(Cl)=C(Nc2cccc([N+](=O)[O-])c2)C(=O)c2ccccc21 [compound 10, 2-Chloro-3-((3-nitrophenyl)amino)naphthalene-1,4-dione]",114.1 ± 0.71 µM
9,"Cc1ccc(NC2=C(Cl)C(=O)c3ccccc3C2=O)cc1 [compound 3, 2-Chloro-3-(p-tolylamino)naphthalene-1,4-dione]",> 50 µg/mL

# System: T47D hormone-dependent breast cancer cell line
# Experiment: Cytotoxic assay
# Settings: Homo sapiens, 48 h, read-out: Cytotoxic activity IC50, T47D
row,Compound,IC50
1,"COc1ccc(NC2=C(Cl)C(=O)c3ccccc3C2=O)cc1 [compound 11, 2-Chloro-3-((4-methoxyphenyl)amino)naphthalene-1,4-dione]",> 50 µg/mL
2,"COc1ccc(NC2=CC(=O)c3ccccc3C2=O)cc1 [compound 18, 2-((4-Methoxyphenyl)amino)naphthalene-1,4-dione]",> 50 µg/mL
3,"O=C1C(Br)=C(Nc2ccc(Br)cc2)C(=O)c2ccccc21 [compound 15, 2-Bromo-3-((4-bromophenyl)amino)naphthalene-1,4-dione]",> 50 µg/mL
4,"O=C1C(Br)=C(Nc2ccccc2)C(=O)c2ccccc21 [compound 13, 2-Bromo-3-(phenylamino)naphthalene-1,4-dione]",10.1 ± 0.27 µM
5,"O=C1C(Cl)=C(Nc2ccc(I)cc2)C(=O)c2ccccc21 [compound 6, 2-Chloro-3-((4-iodophenyl)amino)naphthalene-1,4-dione]",52.5 ± 0.85 µM
6,"COc1cccc2c1C(=O)c1c(O)c3c(c(O)c1C2=O)C[C@@](O)(C(=O)CO)C[C@@H]3O[C@H]1C[C@H](N)[C@H](O)[C@H](C)O1 [doxorubicin, reference compound]",1.04 ± 0.01 µM
7,"O=C1C(Cl)=C(Nc2ccc([N+](=O)[O-])cc2)C(=O)c2ccccc21 [compound 8, 2-Chloro-3-((4-nitrophenyl)amino)naphthalene-1,4-dione]",11.7 ± 0.19 µM
8,"O=C1C(Cl)=C(Nc2cccc([N+](=O)[O-])c2)C(=O)c2ccccc21 [compound 10, 2-Chloro-3-((3-nitrophenyl)amino)naphthalene-1,4-dione]",19.2 ± 1.77 µM
9,"Cc1ccc(NC2=C(Cl)C(=O)c3ccccc3C2=O)cc1 [compound 3, 2-Chloro-3-(p-tolylamino)naphthalene-1,4-dione]",39.5 ± 0.3 µM

# System: HepG2 hepatocellular carcinoma cell line
# Experiment: Cytotoxic assay
# Settings: Homo sapiens, HepG2, 48 h, read-out: Cytotoxic activity IC50, HepG2
row,Compound,IC50
1,"COc1ccc(NC2=C(Cl)C(=O)c3ccccc3C2=O)cc1 [compound 11, 2-Chloro-3-((4-methoxyphenyl)amino)naphthalene-1,4-dione]",> 50 µg/mL
2,"COc1ccc(NC2=CC(=O)c3ccccc3C2=O)cc1 [compound 18, 2-((4-Methoxyphenyl)amino)naphthalene-1,4-dione]",> 50 µg/mL
3,"O=C1C(Br)=C(Nc2ccc(Br)cc2)C(=O)c2ccccc21 [compound 15, 2-Bromo-3-((4-bromophenyl)amino)naphthalene-1,4-dione]",4.94 ± 0.02 µM
4,"O=C1C(Br)=C(Nc2ccccc2)C(=O)c2ccccc21 [compound 13, 2-Bromo-3-(phenylamino)naphthalene-1,4-dione]",20.1 ± 0.54 µM
5,"O=C1C(Cl)=C(Nc2ccc(I)cc2)C(=O)c2ccccc21 [compound 6, 2-Chloro-3-((4-iodophenyl)amino)naphthalene-1,4-dione]",> 50 µg/mL
6,"COc1cccc2c1C(=O)c1c(O)c3c(c(O)c1C2=O)C[C@@](O)(C(=O)CO)C[C@@H]3O[C@H]1C[C@H](N)[C@H](O)[C@H](C)O1 [doxorubicin, reference compound]",0.5 ± 0.04 µM
7,"O=C1C(Cl)=C(Nc2ccc([N+](=O)[O-])cc2)C(=O)c2ccccc21 [compound 8, 2-Chloro-3-((4-nitrophenyl)amino)naphthalene-1,4-dione]",86.1 ± 1.61 µM
8,"O=C1C(Cl)=C(Nc2cccc([N+](=O)[O-])c2)C(=O)c2ccccc21 [compound 10, 2-Chloro-3-((3-nitrophenyl)amino)naphthalene-1,4-dione]",> 50 µg/mL
9,"Cc1ccc(NC2=C(Cl)C(=O)c3ccccc3C2=O)cc1 [compound 3, 2-Chloro-3-(p-tolylamino)naphthalene-1,4-dione]",127.4 ± 0.65 µM

# System: MOLT-3 lymphoblastic leukemia cell line
# Experiment: Cytotoxic assay
# Settings: Homo sapiens, MOLT-3, 48 h, read-out: Cytotoxic activity IC50, MOLT-3
row,Compound,IC50
1,"COc1ccc(NC2=C(Cl)C(=O)c3ccccc3C2=O)cc1 [compound 11, 2-Chloro-3-((4-methoxyphenyl)amino)naphthalene-1,4-dione]",17.6 ± 3.3 µM
2,"COc1ccc(NC2=CC(=O)c3ccccc3C2=O)cc1 [compound 18, 2-((4-Methoxyphenyl)amino)naphthalene-1,4-dione]",> 50 µg/mL
3,"O=C1C(Br)=C(Nc2ccc(Br)cc2)C(=O)c2ccccc21 [compound 15, 2-Bromo-3-((4-bromophenyl)amino)naphthalene-1,4-dione]",7.17 ± 1.12 µM
4,"O=C1C(Br)=C(Nc2ccccc2)C(=O)c2ccccc21 [compound 13, 2-Bromo-3-(phenylamino)naphthalene-1,4-dione]",2.74 ± 0.02 µM
5,"O=C1C(Cl)=C(Nc2ccc(I)cc2)C(=O)c2ccccc21 [compound 6, 2-Chloro-3-((4-iodophenyl)amino)naphthalene-1,4-dione]",42.6 ± 8.11 µM
6,"COc1cccc2c1C(=O)c1c(O)c3c(c(O)c1C2=O)C[C@@](O)(C(=O)CO)C[C@@H]3O[C@H]1C[C@H](N)[C@H](O)[C@H](C)O1 [doxorubicin, reference compound]",0.02 µM
7,"O=C1C(Cl)=C(Nc2ccc([N+](=O)[O-])cc2)C(=O)c2ccccc21 [compound 8, 2-Chloro-3-((4-nitrophenyl)amino)naphthalene-1,4-dione]",1.98 ± 0.28 µM
8,"O=C1C(Cl)=C(Nc2cccc([N+](=O)[O-])c2)C(=O)c2ccccc21 [compound 10, 2-Chloro-3-((3-nitrophenyl)amino)naphthalene-1,4-dione]",2.98 ± 0.25 µM
9,"Cc1ccc(NC2=C(Cl)C(=O)c3ccccc3C2=O)cc1 [compound 3, 2-Chloro-3-(p-tolylamino)naphthalene-1,4-dione]",4.3 ± 0.46 µM

# System: HuCCA-1 cholangiocarcinoma cancer cell line
# Experiment: Cytotoxic assay
# Settings: Homo sapiens, HuCC-A1, 48 h, read-out: Cytotoxic activity IC50, HuCCA-1
row,Compound,IC50
1,"COc1ccc(NC2=C(Cl)C(=O)c3ccccc3C2=O)cc1 [compound 11, 2-Chloro-3-((4-methoxyphenyl)amino)naphthalene-1,4-dione]",> 50 µg/mL
2,"COc1ccc(NC2=CC(=O)c3ccccc3C2=O)cc1 [compound 18, 2-((4-Methoxyphenyl)amino)naphthalene-1,4-dione]",> 50 µg/mL
3,"O=C1C(Br)=C(Nc2ccc(Br)cc2)C(=O)c2ccccc21 [compound 15, 2-Bromo-3-((4-bromophenyl)amino)naphthalene-1,4-dione]",70.2 ± 1.12 µM
4,"O=C1C(Br)=C(Nc2ccccc2)C(=O)c2ccccc21 [compound 13, 2-Bromo-3-(phenylamino)naphthalene-1,4-dione]",15.6 ± 0.54 µM
5,"O=C1C(Cl)=C(Nc2ccc(I)cc2)C(=O)c2ccccc21 [compound 6, 2-Chloro-3-((4-iodophenyl)amino)naphthalene-1,4-dione]",> 50 µg/mL
6,"COc1cccc2c1C(=O)c1c(O)c3c(c(O)c1C2=O)C[C@@](O)(C(=O)CO)C[C@@H]3O[C@H]1C[C@H](N)[C@H](O)[C@H](C)O1 [doxorubicin, reference compound]",1.17 ± 0.05 µM
7,"O=C1C(Cl)=C(Nc2ccc([N+](=O)[O-])cc2)C(=O)c2ccccc21 [compound 8, 2-Chloro-3-((4-nitrophenyl)amino)naphthalene-1,4-dione]",16.3 ± 0.98 µM
8,"O=C1C(Cl)=C(Nc2cccc([N+](=O)[O-])c2)C(=O)c2ccccc21 [compound 10, 2-Chloro-3-((3-nitrophenyl)amino)naphthalene-1,4-dione]",42.1 ± 0.74 µM
9,"Cc1ccc(NC2=C(Cl)C(=O)c3ccccc3C2=O)cc1 [compound 3, 2-Chloro-3-(p-tolylamino)naphthalene-1,4-dione]",42.2 ± 1.96 µM

# System: MDA-MB-231 hormone-independent breast cancer cell line
# Experiment: Cytotoxic assay
# Settings: Homo sapiens, MDA-MB-231, 48 h, read-out: Cytotoxic activity IC50, MDA-MB-231
row,Compound,IC50
1,"COc1ccc(NC2=C(Cl)C(=O)c3ccccc3C2=O)cc1 [compound 11, 2-Chloro-3-((4-methoxyphenyl)amino)naphthalene-1,4-dione]",105 ± 2.72 µM
2,"COc1ccc(NC2=CC(=O)c3ccccc3C2=O)cc1 [compound 18, 2-((4-Methoxyphenyl)amino)naphthalene-1,4-dione]",> 50 µg/mL
3,"O=C1C(Br)=C(Nc2ccc(Br)cc2)C(=O)c2ccccc21 [compound 15, 2-Bromo-3-((4-bromophenyl)amino)naphthalene-1,4-dione]",65.5 ± 3.01 µM
4,"O=C1C(Br)=C(Nc2ccccc2)C(=O)c2ccccc21 [compound 13, 2-Bromo-3-(phenylamino)naphthalene-1,4-dione]",9.48 ± 2.17 µM
5,"O=C1C(Cl)=C(Nc2ccc(I)cc2)C(=O)c2ccccc21 [compound 6, 2-Chloro-3-((4-iodophenyl)amino)naphthalene-1,4-dione]",> 50 µg/mL
6,"COc1cccc2c1C(=O)c1c(O)c3c(c(O)c1C2=O)C[C@@](O)(C(=O)CO)C[C@@H]3O[C@H]1C[C@H](N)[C@H](O)[C@H](C)O1 [doxorubicin, reference compound]",2.1 ± 0.06 µM
7,"O=C1C(Cl)=C(Nc2ccc([N+](=O)[O-])cc2)C(=O)c2ccccc21 [compound 8, 2-Chloro-3-((4-nitrophenyl)amino)naphthalene-1,4-dione]",11.1 ± 2.84 µM
8,"O=C1C(Cl)=C(Nc2cccc([N+](=O)[O-])c2)C(=O)c2ccccc21 [compound 10, 2-Chloro-3-((3-nitrophenyl)amino)naphthalene-1,4-dione]",16.2 ± 0.57 µM
9,"Cc1ccc(NC2=C(Cl)C(=O)c3ccccc3C2=O)cc1 [compound 3, 2-Chloro-3-(p-tolylamino)naphthalene-1,4-dione]",10.7 ± 1.89 µM

# System: not listed separately
# Experiment: Cytotoxic assay
# Settings: human, MRC-5 normal embryonic lung cell line
row,Compound,IC50 at 48 h
1,"COc1ccc(NC2=C(Cl)C(=O)c3ccccc3C2=O)cc1 [compound 11, 2-Chloro-3-((4-methoxyphenyl)amino)naphthalene-1,4-dione]",> 50 µg/mL
2,"COc1ccc(NC2=CC(=O)c3ccccc3C2=O)cc1 [compound 18, 2-((4-Methoxyphenyl)amino)naphthalene-1,4-dione]",> 50 µg/mL
3,"O=C1C(Br)=C(Nc2ccc(Br)cc2)C(=O)c2ccccc21 [compound 15, 2-Bromo-3-((4-bromophenyl)amino)naphthalene-1,4-dione]",> 50 µg/mL
4,"O=C1C(Br)=C(Nc2ccccc2)C(=O)c2ccccc21 [compound 13, 2-Bromo-3-(phenylamino)naphthalene-1,4-dione]",15.3 ± 2.67 µM
5,"O=C1C(Cl)=C(Nc2ccc(I)cc2)C(=O)c2ccccc21 [compound 6, 2-Chloro-3-((4-iodophenyl)amino)naphthalene-1,4-dione]",> 50 µg/mL
6,"COc1cccc2c1C(=O)c1c(O)c3c(c(O)c1C2=O)C[C@@](O)(C(=O)CO)C[C@@H]3O[C@H]1C[C@H](N)[C@H](O)[C@H](C)O1 [doxorubicin, reference compound]",2.67 ± 0.2 µM
7,"O=C1C(Cl)=C(Nc2ccc([N+](=O)[O-])cc2)C(=O)c2ccccc21 [compound 8, 2-Chloro-3-((4-nitrophenyl)amino)naphthalene-1,4-dione]",74.9 ± 7.21 µM
8,"O=C1C(Cl)=C(Nc2cccc([N+](=O)[O-])c2)C(=O)c2ccccc21 [compound 10, 2-Chloro-3-((3-nitrophenyl)amino)naphthalene-1,4-dione]",74.53 ± 0.71 µM
9,"Cc1ccc(NC2=C(Cl)C(=O)c3ccccc3C2=O)cc1 [compound 3, 2-Chloro-3-(p-tolylamino)naphthalene-1,4-dione]",92.43 ± 0.02 µM
